Tested on: ECC-1 cells
Test: Caspase-3/7 activity apoptosis assay
Format: cell-based
Settings: ECC-1, 33 μM, 48 hours
Protocol: Cell lines, Culture, and Reagents. Cells were maintained in either DMEM (SKOV-3, KLE, OVCAR-3, OVCAR8-C5 and IGROV-1) or RPMI-1640 (ECC-1 and HCH-1), supplemented with 10% fetal calf serum (or 20% for OVCAR-3), penicillin (100 units/mL), and streptomycin (100 μg/mL) at 37° C. with 5% CO2 in a humidified incubator. Antibodies were purchased from Abcam (septin-2; ab179436) and Cell Signaling Technology; ERK (9102), p-ERK (4370), -actin (3700), u-Tubulin (2144), EGFR (4267) and HER2 (4290). FCF was purchased from Abcam. All other chemicals were from Sigma Aldrich. Synthesis of Derivaties. […] The reaction was monitored using thin-layer chromatography plates with DCM-MeOH or pure ethyl acetate as eluent. Spots were monitored in a UV chamber. […] Quantitative Real-Time PCR. […] Quantitative real-time PCR was conducted using QuantStudio 12 K Flex Real-Time PCR System (ABI) and the Taqman Gene Expression Assay (ABI) consisting of the FAM-labeled probes as follows: SEPT2 (Hs01565417_ml); WFDC2 (Hs00899484_ml); TBP (Hs00427620_ml) or B2M (Hs00187842_ml), which was used as reference for normalization. […] Cell viability, proliferation, and cellular apoptosis were measured using the MTS (Promega), BrdU cell proliferation (Cell Signaling Technology), and Caspase-Glo 3/7 apoptosis detection (Promega) assays, following the respective manufacturer's recommendations with suitable modification. […]

## O=C(Nc1cc(Cl)nc(Cl)c1)Nc1cccc(SC(F)(F)F)c1F [UR214-9]
  apoptosis (caspase-3/7 activity): much more effective

From patent publication US12433876B2, “Septin inhibitors for treatment of cancers” (UNIVERSITY OF ROCHESTER, priority 2019, dated 2025)
